Our source for the IC50 values is PubChem BioAssay AID624167 (Sanford-Burnham Center for Chemical Genomics, 2012).

Calls of active or inactive are those of the source.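 How the source made its calls: active means mean IC50 for reducing PEG3 promoter reporter signal at or below a set limit, with IC50 above the limit in both counter screens; inactive means the rest, including counter screen hits.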 Bounds are passed on as bounds.

A word on the IC50: it is the concentration needed to halve the response being measured.

The target of assay [1] is PEG-3 (UniProt Q6IN02). Description: inhibition of PEG-3 promoter-driven reporter – cell-based, HeLa, luciferase, CREF/GAPDH counter-screen panel, dose response (AID 624167). Conditions: HeLa PEG-Prom luciferase reporter, overnight, CREF/GAPDH counter-screens, mean of runs.
Assay [2] deals with PEG-3. The description is as above. Conditions: HeLa PEG-Prom luciferase reporter, overnight, CREF/GAPDH counter-screens. Background: In a reporter assay the amount or activity of a reporter protein is the signal.
[3] abbreviates: run 1, dose range 1, individual replicate IC50 per panel.
Setting [4] is: run 2, dose range 1, individual replicate IC50 per panel.

PEG-3 (UniProt Q6IN02), sequence (Q6IN02 whole entry, looked up): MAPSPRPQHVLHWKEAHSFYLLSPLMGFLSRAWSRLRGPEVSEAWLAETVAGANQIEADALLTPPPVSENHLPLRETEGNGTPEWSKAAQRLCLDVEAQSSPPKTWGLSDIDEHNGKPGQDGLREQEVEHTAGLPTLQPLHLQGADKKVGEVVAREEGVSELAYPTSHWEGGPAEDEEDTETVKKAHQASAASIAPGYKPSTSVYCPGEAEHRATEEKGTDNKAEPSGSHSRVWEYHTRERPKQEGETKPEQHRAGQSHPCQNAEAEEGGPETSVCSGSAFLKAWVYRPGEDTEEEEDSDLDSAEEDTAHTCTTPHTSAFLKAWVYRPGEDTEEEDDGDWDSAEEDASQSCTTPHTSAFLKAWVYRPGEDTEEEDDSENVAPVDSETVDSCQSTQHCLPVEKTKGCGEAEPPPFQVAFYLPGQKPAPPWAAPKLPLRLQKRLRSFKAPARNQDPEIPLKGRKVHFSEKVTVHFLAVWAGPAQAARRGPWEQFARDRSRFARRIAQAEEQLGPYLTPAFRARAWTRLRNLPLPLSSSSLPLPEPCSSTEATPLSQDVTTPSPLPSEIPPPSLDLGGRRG

For the compound `COc1ccc2sc(-c3ccc(S(C)(=O)=O)cc3)c(C#Cc3cncn3C)c2c1`, at PEG-3 [1], the IC50 entry was “inactive”. The concentration for half-maximal inhibition (IC50) with PEG-3 [2] (setting [3]) is 21.2 µM; with PEG-3 [2] (setting [4]), > 100 µM.

For the compound `O=C(Nc1ccc(S(=O)(=O)NC2=NCCCCC2)cc1)c1ccc([N+](=O)[O-])s1`, the IC50 at PEG-3 [1] is 15.4 µM; in the assay on PEG-3 [2] (setting [3]) it was 19.2 µM; with PEG-3 [2] (setting [4]) it was 11.7 µM.

For the compound `Cc1ccc(C(=O)N/C(=C\c2ccc(-c3cccc([N+](=O)[O-])c3)o2)C(=O)NCCCN(C)C)cc1`, the IC50 at PEG-3 [1] was 17 µM; with PEG-3 [2] (setting [3]), 18.6 µM; in the assay with PEG-3 [2] (setting [4]) it was 15.3 µM.

Turning to `COc1cccc2c1C(=N)c1c(O)c3c(c(O)c1C2=O)CC(O)(C(C)=O)CC3OC1CC(N)C(O)C(C)O1` (stereo not drawn), the IC50 was 11.6 µM on PEG-3 [1], 15.7 µM in the assay on PEG-3 [2] (setting [3]) and 7.56 µM in the assay on PEG-3 [2] (setting [4]).

With `Cc1cc2sc3ccc(C#CC4(O)CCCCC4)cc3c(=O)c2cc1C`, the IC50 is 0.265 µM at PEG-3 [1], 0.265 µM in the assay with PEG-3 [2] (setting [3]) and < 0.2 µM in the assay on PEG-3 [2] (setting [4]).

As to `CCOc1ccc(Nc2c3ccccc3nc3ccccc23)cc1`, the results for the IC50 on PEG-3 [1], in the assay with PEG-3 [2] (setting [3]) and in the assay with PEG-3 [2] (setting [4]) were 16.9 µM, 21.9 µM and 11.9 µM, respectively.

`Cc1cc(Br)ccc1NC(=O)CN1C(=O)C2C3CC(c4ccccc4)C(C3)C2C1=O` (stereo not drawn): the IC50 entry at PEG-3 [1] was “inactive”. Besides, the IC50 in the assay with PEG-3 [2] (setting [3]) turned out to be 23.9 µM; with PEG-3 [2] (setting [4]) it was 41.9 µM.

Turning to `CNCC(O)c1cc(OCc2ccccc2)c(OCc2ccccc2)cc1F` (stereo not drawn), the IC50 on PEG-3 [1] is 18.5 µM; in the assay on PEG-3 [2] (setting [3]), 20.8 µM; in the assay on PEG-3 [2] (setting [4]), 16.3 µM.

For the compound `CCOc1ccc2[nH]c3c(NCCc4ccc(OC)c(OC)c4)ncnc3c2c1`, the IC50 result at PEG-3 [1] is “inactive”. Also, the IC50 in the assay on PEG-3 [2] (setting [3]) is 46.3 µM; with PEG-3 [2] (setting [4]), > 100 µM.

On to `O=C(Nc1ccc(-c2cn3ccsc3n2)cc1)c1ccc(F)c(S(=O)(=O)N2CCOCC2)c1`, for which the IC50 was > 100 µM (inactive) at PEG-3 [1], > 100 µM in the assay with PEG-3 [2] (setting [3]) and > 100 µM with PEG-3 [2] (setting [4]).

Regarding `CCCCCCCCCCCCCCC(O)C[N+](C)(CCO)CCO` (stereo not drawn), the results for the IC50 at PEG-3 [1], in the assay with PEG-3 [2] (setting [3]) and in the assay with PEG-3 [2] (setting [4]) were 14.3 µM, 17.7 µM and 11 µM, respectively.

On to `CCCN1CCc2c(sc(NC(=O)c3ccc(S(=O)(=O)N4CCN(C(=O)OCC)CC4)cc3)c2C(N)=O)C1`, for which the IC50 entry at PEG-3 [1] was “inactive”. Also, the IC50 in the assay on PEG-3 [2] (setting [3]) is 21.9 µM; in the assay on PEG-3 [2] (setting [4]), 21.2 µM.

For `CCN(c1ccccc1)S(=O)(=O)c1ccc(C(=O)N(CCCN(C)C)c2nc3cc4c(cc3s2)OCO4)cc1`, the IC50 result at PEG-3 [1] was “inactive”. In addition, the figures for the IC50 with PEG-3 [2] (setting [3]) and with PEG-3 [2] (setting [4]) were 23.6 µM and 19.7 µM, respectively.

With `O=C(Nc1ccc2oc(-c3ccncc3)nc2c1)c1ccc([N+](=O)[O-])o1`, the IC50 on PEG-3 [1] is 11.2 µM; in the assay with PEG-3 [2] (setting [3]), 15.9 µM; in the assay with PEG-3 [2] (setting [4]), 6.56 µM.

Regarding `OCCN1CCN(C2CCC(c3ccc(F)cc3)c3ccc(F)cc32)CC1` (stereo not drawn), the IC50 entry at PEG-3 [1] was “inactive”. For the same compound, the values for the IC50 in the assay on PEG-3 [2] (setting [3]) and with PEG-3 [2] (setting [4]) were 20.4 µM and 23 µM, respectively.

With `CC(=O)Nc1cccc(NC(=O)c2cc(-c3cccnc3)nc3ccc(Cl)cc23)c1`, the IC50 result at PEG-3 [1] is “inactive”. Further, the IC50 came out at 50.2 µM in the assay with PEG-3 [2] (setting [3]) and 59.2 µM in the assay with PEG-3 [2] (setting [4]).

Take `CN1CCC(NC(=O)c2cc(-c3cccc(Br)c3)nc3ccccc23)CC1`: the IC50 was 18 µM on PEG-3 [1], 20.9 µM in the assay with PEG-3 [2] (setting [3]) and 15.1 µM in the assay with PEG-3 [2] (setting [4]).

With `Cc1ccc2sc(N(CCCN(C)C)C(=O)c3ccc(S(=O)(=O)N(C)C4CCCCC4)cc3)nc2c1C`, the IC50 was 17.2 µM on PEG-3 [1], 20.7 µM in the assay on PEG-3 [2] (setting [3]) and 13.7 µM with PEG-3 [2] (setting [4]).

With `COc1cccc(/C=N/Nc2cc(C)nc(-c3ccccc3O)n2)c1O`, the figures for the IC50 at PEG-3 [1], in the assay with PEG-3 [2] (setting [3]) and with PEG-3 [2] (setting [4]) were 13 µM, 12.5 µM and 13.6 µM, respectively.

Turning to `CN(C)c1ccc(/C=N/NC(=O)c2nnn(-c3nonc3N)c2COc2ccc(F)cc2)cc1`, the results for the IC50 on PEG-3 [1], in the assay on PEG-3 [2] (setting [3]) and with PEG-3 [2] (setting [4]) were > 100 µM (inactive), > 100 µM and > 100 µM, respectively.

With `O=C(CCCN1C(=O)/C(=C/c2ccccc2Cl)SC1=S)NNC(=O)c1ccccc1Cl`, at PEG-3 [1], the IC50 entry was “inactive”. Moreover, the IC50 in the assay with PEG-3 [2] (setting [3]) came to 26.4 µM; in the assay with PEG-3 [2] (setting [4]), 22 µM.

For `COc1cc(N=Nc2c(O)c3ccccc3[nH]c2=O)c(OC)cc1N=Nc1ccccc1`, the figures for the IC50 at PEG-3 [1], with PEG-3 [2] (setting [3]) and with PEG-3 [2] (setting [4]) were > 100 µM (inactive), > 100 µM and > 100 µM, respectively.

As to `COc1ccc(/C=C/C(=O)c2ccc3c4c(cccc24)CC3)cc1OC`, the IC50 entry on PEG-3 [1] is “inactive”. In addition, the IC50 in the assay with PEG-3 [2] (setting [3]) is 31.6 µM; with PEG-3 [2] (setting [4]) it was 42 µM.

Turning to `COCc1ccc(CN2CCC(C(=O)Nc3cccc(-c4cccc(Cl)c4)c3)CC2)o1`, the IC50 on PEG-3 [1] is 13.3 µM; in the assay with PEG-3 [2] (setting [3]), 16.8 µM; with PEG-3 [2] (setting [4]), 9.78 µM.

Regarding `CC1(C)Oc2cc3oc(-c4cc(O)cc(O)c4)cc3cc2CC1O` (stereo not drawn), the IC50 entry at PEG-3 [1] was “inactive”. Moreover, the 50% inhibitory concentration (IC50) with PEG-3 [2] (setting [3]) turned out to be 37.1 µM; in the assay on PEG-3 [2] (setting [4]) it was 13.7 µM.

`O=C1OCCC1Sc1nnc(-c2ccc(Cl)cc2Cl)o1` (stereo not drawn): the IC50 result on PEG-3 [1] was “inactive”. Also, the IC50 with PEG-3 [2] (setting [3]) was 6.82 µM; in the assay on PEG-3 [2] (setting [4]) it was 35.5 µM.
